Reference: patent US20240218022A1, “ANTI-VISTA MACROCYCLIC PEPTIDES AND COMPOSITIONS” (BRISTOL-MYERS SQUIBB COMPANY, priority 2022, published 2024)
Starred links: 1 amine or outer side, 2 acyl side, 3 side chain; linkers in the order of their positions; H or OH if unused. Positions of bridges follow the written chain, without caps; N, C: chain ends. Non-standard residues stand in square brackets, D forms with d. Residues, ends and D or L forms follow the SMILES beside them. ξ: configuration not given here. γGlu = O=C(O)[C@H](CCC(=O)[*:2])N[*:1]; NMeThr(3ξ) = CN[C@H](C(=O)O)C(C)O; NMeL = CN[C@@H](CC(C)C)C(=O)O; Ahp(2) = CCCCC[C@H](N)C(=O)O; NMeNle = CCCC[C@H](NC)C(=O)O; Tle = CC(C)(C)[C@H](N)C(=O)O; NMeV = CN[C@H](C(=O)O)C(C)C; NMeS = CN[C@@H](CO)C(=O)O; NHexGly = CCCCCCNCC(=O)O; Aun = NCCCCCCCCCCC(=O)O; AEEA = NCCOCCOCC(=O)O

Target: T1, mouse VISTA (mVISTA) (Mus musculus, UniProt Q9D659)
T1 construct: expressed in transfected cells; host or cells: Human embryonic kidney 293T cells
T1 sequence (Q9D659 33-308): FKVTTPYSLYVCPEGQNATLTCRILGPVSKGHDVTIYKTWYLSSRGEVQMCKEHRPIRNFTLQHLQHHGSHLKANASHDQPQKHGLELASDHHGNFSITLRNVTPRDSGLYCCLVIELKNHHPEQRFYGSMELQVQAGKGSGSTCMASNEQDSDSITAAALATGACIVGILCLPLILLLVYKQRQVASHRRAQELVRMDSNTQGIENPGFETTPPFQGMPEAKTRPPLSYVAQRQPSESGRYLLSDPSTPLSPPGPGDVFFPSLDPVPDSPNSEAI
Assay: Cell-Based Binding High-Content Assay For mVISTA (HC CBA mVISTA)
Conditions: read-out: HC CBA mVISTA IC50
Summary of the method: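 mVISTA-293T, 4,000 cells/well; cpd ± washout step; biotin-peptide 2 nM final, 30 min RT; SA-Alexa 647 30 min; formaldehyde/Hoechst fix; HCS imaging; 4PL IC50.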

Row | Compound | IC50
1 | CCCCCCN1CC(=O)N[C@@H](Cc2ccc(O)cc2)C(=O)N[C@@H](CC(C)C)C(=O)N[C@@H](CC(N)=O)C(=O)N[C@@H](CCCNC(=N)N)C(=O)N(C)[C@@H](CO)C(=O)N[C@@H](CCCCC)C(=O)N2CCC[C@H]2C(=O)N[C@@H](C(C)(C)C)C(=O)N[C@@H](CO)C(=O)N[C@H](C(=O)NCCOCCOCC(=O)N[C@@H](CCC(=O)NCCOCCOCC(=O)NCCCCCCCCCCC(=O)O)C(=O)O)CSCC(=O)N[C@@H](Cc2ccccc2)C(=O)N[C@@H](Cc2ccc(O)cc2)C(=O)N[C@@H](CC(=O)O)C1=O [compound 2262] ({CH2CO}-FYD[NHexGly]YLNR[NMeS][Ahp(2)]P[Tle]SC[AEEA][γGlu][AEEA][Aun]-OH; thioether N-14) | 39.8 nM
2 | CCCCCCN1CC(=O)N[C@@H](Cc2ccc(O)cc2)C(=O)N[C@@H](CC(C)C)C(=O)N[C@@H](CC(N)=O)C(=O)N[C@@H](CCCNC(=N)N)C(=O)N(C)[C@@H](CC(C)C)C(=O)N[C@@H](CCCCC)C(=O)N2CCC[C@H]2C(=O)N[C@@H](C(C)(C)C)C(=O)N[C@@H](CO)C(=O)N[C@H](C(=O)NCCOCCOCC(=O)N[C@@H](CCC(=O)NCCOCCOCC(=O)NCCCCCCCCCCC(=O)O)C(=O)O)CSCC(=O)N[C@@H](Cc2ccccc2)C(=O)N[C@@H](Cc2c[nH]c3ccccc23)C(=O)N[C@@H](CC(=O)O)C1=O [compound 2263] ({CH2CO}-FWD[NHexGly]YLNR[NMeL][Ahp(2)]P[Tle]SC[AEEA][γGlu][AEEA][Aun]-OH; thioether N-14) | 25.1 nM
3 | CCCCCCN1CC(=O)N[C@@H](Cc2ccc(O)cc2)C(=O)N[C@@H](CC(C)C)C(=O)N[C@@H](CC(N)=O)C(=O)N[C@@H](CCCNC(=N)N)C(=O)N(C)[C@@H](CO)C(=O)N[C@@H](CCCCC)C(=O)N2CCC[C@H]2C(=O)N[C@@H](C(C)(C)C)C(=O)N[C@@H](CC(=O)O)C(=O)N[C@H](C(=O)NCCOCCOCC(=O)N[C@@H](CCC(=O)NCCOCCOCC(=O)NCCCCCCCCCCC(=O)O)C(=O)O)CSCC(=O)N[C@@H](Cc2ccccc2)C(=O)N[C@@H](Cc2c[nH]c3ccccc23)C(=O)N[C@@H](CC(=O)O)C1=O [compound 2264] ({CH2CO}-FWD[NHexGly]YLNR[NMeS][Ahp(2)]P[Tle]DC[AEEA][γGlu][AEEA][Aun]-OH; thioether N-14) | 24.7 nM
4 | CCCCCCN1CC(=O)N[C@@H](Cc2ccc(O)cc2)C(=O)N[C@@H](CC(C)C)C(=O)N[C@@H](CC(N)=O)C(=O)N[C@@H](CCCNC(=N)N)C(=O)N(C)[C@@H](CCCC)C(=O)N[C@@H](CCCCC)C(=O)N2CCC[C@H]2C(=O)N[C@@H](C(C)(C)C)C(=O)N[C@@H](CC(=O)O)C(=O)N[C@H](C(=O)NCCOCCOCC(=O)N[C@@H](CCC(=O)NCCOCCOCC(=O)NCCCCCCCCCCC(=O)O)C(=O)O)CSCC(=O)N[C@@H](Cc2ccccc2)C(=O)N[C@@H](Cc2c[nH]c3ccccc23)C(=O)N[C@@H](CC(=O)O)C1=O [compound 2265] ({CH2CO}-FWD[NHexGly]YLNR[NMeNle][Ahp(2)]P[Tle]DC[AEEA][γGlu][AEEA][Aun]-OH; thioether N-14) | 17.8 nM
5 | CCCCCCN1CC(=O)N[C@@H](Cc2ccc(O)cc2)C(=O)N[C@@H](CC(C)C)C(=O)N[C@@H](CC(N)=O)C(=O)N[C@@H](CCCNC(=N)N)C(=O)N(C)[C@@H](CO)C(=O)N[C@@H](CCCCC)C(=O)N2CCC[C@H]2C(=O)N[C@@H](C(C)(C)C)C(=O)N[C@@H](CO)C(=O)N[C@H](C(=O)NCCOCCOCC(=O)N[C@@H](CCC(=O)NCCOCCOCC(=O)NCCCCCCCCCCC(=O)O)C(=O)O)CSCC(=O)N[C@@H](Cc2ccccc2)C(=O)N[C@@H](Cc2c[nH]c3ccccc23)C(=O)N[C@@H](CC(=O)O)C1=O [compound 2266] ({CH2CO}-FWD[NHexGly]YLNR[NMeS][Ahp(2)]P[Tle]SC[AEEA][γGlu][AEEA][Aun]-OH; thioether N-14) | 37.9 nM
6 | CCCCCCN1CC(=O)N[C@@H](Cc2ccc(O)cc2)C(=O)N[C@@H](CC(C)C)C(=O)N[C@@H](CC(N)=O)C(=O)N[C@@H](CCCNC(=N)N)C(=O)N(C)[C@@H](CC(C)C)C(=O)N[C@@H](CCCCC)C(=O)N2CCC[C@H]2C(=O)N[C@@H](C(C)(C)C)C(=O)N[C@@H](CC(=O)O)C(=O)N[C@H](C(=O)NCCOCCOCC(=O)N[C@@H](CCC(=O)NCCOCCOCC(=O)NCCCCCCCCCCC(=O)O)C(=O)O)CSCC(=O)N[C@@H](Cc2ccccc2)C(=O)N[C@@H](Cc2ccc(O)cc2)C(=O)N[C@@H](CC(=O)O)C1=O [compound 2267] ({CH2CO}-FYD[NHexGly]YLNR[NMeL][Ahp(2)]P[Tle]DC[AEEA][γGlu][AEEA][Aun]-OH; thioether N-14) | 28.9 nM
7 | CCCCCCN1CC(=O)N[C@@H](Cc2ccc(O)cc2)C(=O)N[C@@H](CC(C)C)C(=O)N[C@@H](CC(N)=O)C(=O)N[C@@H](CCCNC(=N)N)C(=O)N(C)[C@@H](CCCC)C(=O)N[C@@H](CCCCC)C(=O)N2CCC[C@H]2C(=O)N[C@@H](C(C)(C)C)C(=O)N[C@@H](CO)C(=O)N[C@H](C(=O)NCCOCCOCC(=O)N[C@@H](CCC(=O)NCCOCCOCC(=O)NCCCCCCCCCCC(=O)O)C(=O)O)CSCC(=O)N[C@@H](Cc2ccccc2)C(=O)N[C@@H](Cc2c[nH]c3ccccc23)C(=O)N[C@@H](CC(=O)O)C1=O [compound 2268] ({CH2CO}-FWD[NHexGly]YLNR[NMeNle][Ahp(2)]P[Tle]SC[AEEA][γGlu][AEEA][Aun]-OH; thioether N-14) | 16.1 nM
8 | CCCCCCN1CC(=O)N[C@@H](Cc2ccc(O)cc2)C(=O)N[C@@H](CC(C)C)C(=O)N[C@@H](CC(N)=O)C(=O)N[C@@H](CCCNC(=N)N)C(=O)N(C)[C@@H](CC(C)C)C(=O)N[C@@H](CCCCC)C(=O)N2CCC[C@H]2C(=O)N[C@@H](C(C)(C)C)C(=O)N[C@@H](CC(=O)O)C(=O)N[C@H](C(=O)NCCOCCOCC(=O)N[C@@H](CCC(=O)NCCOCCOCC(=O)NCCCCCCCCCCC(=O)O)C(=O)O)CSCC(=O)N[C@@H](Cc2ccccc2)C(=O)N[C@@H](Cc2c[nH]c3ccccc23)C(=O)N[C@@H](CC(=O)O)C1=O [compound 2269] ({CH2CO}-FWD[NHexGly]YLNR[NMeL][Ahp(2)]P[Tle]DC[AEEA][γGlu][AEEA][Aun]-OH; thioether N-14) | 28.2 nM
9 | CCCCCCN1CC(=O)N[C@@H](Cc2ccc(O)cc2)C(=O)N[C@@H](CC(C)C)C(=O)N[C@@H](CC(N)=O)C(=O)N[C@@H](CCCNC(=N)N)C(=O)N(C)[C@@H](CC(C)C)C(=O)N[C@@H](CCCCC)C(=O)N2CCC[C@H]2C(=O)N[C@@H](C(C)(C)C)C(=O)N[C@@H](CO)C(=O)N[C@H](C(=O)NCCOCCOCC(=O)N[C@@H](CCC(=O)NCCOCCOCC(=O)NCCCCCCCCCCC(=O)O)C(=O)O)CSCC(=O)N[C@@H](Cc2ccccc2)C(=O)N[C@@H](Cc2ccc(O)cc2)C(=O)N[C@@H](CC(=O)O)C1=O [compound 2270] ({CH2CO}-FYD[NHexGly]YLNR[NMeL][Ahp(2)]P[Tle]SC[AEEA][γGlu][AEEA][Aun]-OH; thioether N-14) | 18.8 nM
10 | CCCCCCN1CC(=O)N[C@@H](Cc2ccc(O)cc2)C(=O)N[C@@H](CC(C)C)C(=O)N[C@@H](CC(N)=O)C(=O)N[C@@H](CCCNC(=N)N)C(=O)N(C)[C@@H](C(C)C)C(=O)N[C@@H](CCCCC)C(=O)N2CCC[C@H]2C(=O)N[C@@H](C(C)(C)C)C(=O)N[C@@H](CO)C(=O)N[C@H](C(=O)NCCOCCOCC(=O)N[C@@H](CCC(=O)NCCOCCOCC(=O)NCCCCCCCCCCC(=O)O)C(=O)O)CSCC(=O)N[C@@H](Cc2ccccc2)C(=O)N[C@@H](Cc2ccc(O)cc2)C(=O)N[C@@H](CC(=O)O)C1=O [compound 2271] ({CH2CO}-FYD[NHexGly]YLNR[NMeV][Ahp(2)]P[Tle]SC[AEEA][γGlu][AEEA][Aun]-OH; thioether N-14) | 25.4 nM
11 | CCCCCCN1CC(=O)N[C@@H](Cc2ccc(O)cc2)C(=O)N[C@@H](CC(C)C)C(=O)N[C@@H](CC(N)=O)C(=O)N[C@@H](CCCNC(=N)N)C(=O)N(C)[C@@H](C(C)C)C(=O)N[C@@H](CCCCC)C(=O)N2CCC[C@H]2C(=O)N[C@@H](C(C)(C)C)C(=O)N[C@@H](CO)C(=O)N[C@H](C(=O)NCCOCCOCC(=O)N[C@@H](CCC(=O)NCCOCCOCC(=O)NCCCCCCCCCCC(=O)O)C(=O)O)CSCC(=O)N[C@@H](Cc2ccccc2)C(=O)N[C@@H](Cc2c[nH]c3ccccc23)C(=O)N[C@@H](CC(=O)O)C1=O [compound 2272] ({CH2CO}-FWD[NHexGly]YLNR[NMeV][Ahp(2)]P[Tle]SC[AEEA][γGlu][AEEA][Aun]-OH; thioether N-14) | 34.4 nM
12 | CCCCCCN1CC(=O)N[C@@H](Cc2ccc(O)cc2)C(=O)N[C@@H](CC(C)C)C(=O)N[C@@H](CC(N)=O)C(=O)N[C@@H](CCCNC(=N)N)C(=O)N(C)[C@@H](C(C)O)C(=O)N[C@@H](CCCCC)C(=O)N2CCC[C@H]2C(=O)N[C@@H](C(C)(C)C)C(=O)N[C@@H](CC(=O)O)C(=O)N[C@H](C(=O)NCCOCCOCC(=O)N[C@@H](CCC(=O)NCCOCCOCC(=O)NCCCCCCCCCCC(=O)O)C(=O)O)CSCC(=O)N[C@@H](Cc2ccccc2)C(=O)N[C@@H](Cc2c[nH]c3ccccc23)C(=O)N[C@@H](CC(=O)O)C1=O (stereo partly shown) [compound 2273] ({CH2CO}-FWD[NHexGly]YLNR[NMeThr(3ξ)][Ahp(2)]P[Tle]DC[AEEA][γGlu][AEEA][Aun]-OH; thioether N-14) | 33.6 nM
13 | CCCCCCN1CC(=O)N[C@@H](Cc2ccc(O)cc2)C(=O)N[C@@H](CC(C)C)C(=O)N[C@@H](CC(N)=O)C(=O)N[C@@H](CCCNC(=N)N)C(=O)N(C)[C@@H](C(C)C)C(=O)N[C@@H](CCCCC)C(=O)N2CCC[C@H]2C(=O)N[C@@H](C(C)(C)C)C(=O)N[C@@H](CC(=O)O)C(=O)N[C@H](C(=O)NCCOCCOCC(=O)N[C@@H](CCC(=O)NCCOCCOCC(=O)NCCCCCCCCCCC(=O)O)C(=O)O)CSCC(=O)N[C@@H](Cc2ccccc2)C(=O)N[C@@H](Cc2ccc(O)cc2)C(=O)N[C@@H](CC(=O)O)C1=O [compound 2274] ({CH2CO}-FYD[NHexGly]YLNR[NMeV][Ahp(2)]P[Tle]DC[AEEA][γGlu][AEEA][Aun]-OH; thioether N-14) | 18.8 nM
